# Patent US20220411759A1, “ENDOCRINE DIFFERENTIATION-INDUCING MOLECULE” (President and Fellows of Harvard College, priority 2019, published 2022)
# B1: Activin A: protein factor (R&D Systems) added to differentiation media (protein, UniProt P08476 311-426, looked up)
# Inhibin beta A chain: GLECDGKVNICCKKQFFVSFKDIGWNDWIIAPSGYHANYCEGECPSHIAGTSGSSLSFHSTVINHYRMRGHSPFANLKSCCVPTKLRPMSMLYYDDGQNIIKKDIQNMIVEECGCS
# modifications: Inhibin beta A chain
# notes: protein factor (R&D Systems) added to differentiation media
# Columns and labels:
# [1] = system: HUES8 human embryonic stem cells; assay: Flow cytometry of cell proportions during directed differentiation of hESCs into β cells; type: cell-based
# Method: (§1) HUES8 ([…]) human embryonic stem cells and human induced pluripotent stem cells (hiPSCs) from line 1016 (person) were obtained from the Human Embryonic Stem Cell Facility and iPS Core Facility of the Harvard Stem Cell Institute. Cells were differentiated into beta like cells in suspension as described previously^37. Briefly, 150Xe^6 cells were suspended in 300 ml of supplemented mTeSR1 and grown in spinning flasks (70 rpm, 37° C., 5% CO2) for 48 hours prior to the beginning of a stepwise differentiation protocol:
# Stage 4—5 days in S3 medium supplemented with KGF (50 ng/ml), Sant1 (0.25 μM) and retinoic acid (0.1 μM).
# Stage 5—7 days in BE5 medium supplemented with Beta Cellulin (20 ng/ml). XXI (1 μM), Alk5ill(10 μM) and T3 (1 μM). Sant1 (0.25 μM) was added in the first three days, and retinoic acid was added at 0.1 μM in the first three days, then at 0.025 μM.
# Stage 6—CMRLS medium supplemented with Alk5iII (10 μM) and T3 (1 μM).
# In many of the experiments following cell collection for sc-RNAseq, the protocol was slightly modified to add Y-27632 (10 μM) at stage 3-5, and ActivinA (5 ng/ml) in stage 4. In some cases, an extra day at stage 4 was also added. For the presented functional and flow cytometry analysis in stage 6, CMRLS based media was replaced with S3 medium, without supplements.
# (§2) Factors were tested in either 6-well plates placed on a rocker, or in Biott ABLE Bioreactors (Stemgent). IWR1-endo (Sigma-Aldrich) was used at 5 μM. XAV939 (Santa Cruz, SC-296704A) was used at 5 μM. Recombinant human BMP2/BMP7 (Thermo-Fisher) was used at […]. when added during stage 4, CHIR99021 was used at a concentration of […].
# Differentiated cell clusters were dispersed into single-cell suspension by incubation in TrypLE Express at 37° C., quenched with PBS+2% FBS, fixed with 4% PFA for 30 min at 4° C., washed once in PBS, and resuspended in PBS+2% FBS. Staining was done in 96-well plates. Cells were incubated in blocking buffer (PBS+0.1% Triton X-100+5% donkey serum) at 4° C. for 30-60 min. Cells were then re-suspended in blocking buffer with primary antibodies and incubated at room temperature for 1 hour or at 4° C. overnight. Cells were washed twice in blocking buffer and incubated in blocking buffer with secondary antibodies at 4° C. for 1 hour. Cells were then washed three times in PBS+5% Donkey serum and analyzed using either the BD Accuri c6 flow cytometer or the LSR-II flow cytometer (BD Biosciences). Analysis of the results was performed using FlowJo software.
# [2] = system: differentiating hESC clusters; conditions: Activin A and Y-27632 given together during stage 4; cited from earlier work
# [3] = system: human induced pluripotent stem cells (hiPSCs) from line 1016; assay: Flow cytometry of cell proportions during directed differentiation of hiPSC-1016; type: cell-based; conditions: stage 5
# Method: as §1, §2
# Differentiated cell clusters were dispersed into single-cell suspension by incubation in TrypLE Express at 37° C., quenched with PBS+2% FBS, fixed with 4% PFA for 30 min at 4° C., washed once in PBS, and resuspended in PBS+2% FBS. Staining was done in 96-well plates. Cells were incubated in blocking buffer (PBS+0.1% Triton X-100+5% donkey serum) at 4° C. for 30-60 min. […] Cells were then washed three times in PBS+5% Donkey serum and analyzed using either the BD Accuri c6 flow cytometer or the LSR-II flow cytometer (BD Biosciences). […]
# [4] = system: differentiating hESC clusters; assay: Nanostring mRNA expression of endocrine, hormone and progenitor markers in differentiating clusters; type: cell-based, human; conditions: treatment during both stages 4 and 5; relative to control
# Method: as §2
# Cells were collected for RNA extraction in RLT Lysis Buffer (Qiagen) and frozen at −80° C. RNA was extracted using the RNeasy Mini Kit (Qiagen), according the manufacturer's instructions—including DNA digestion, and 100 ng of RNA was used for each reaction. Nanostring set up was performed according to the protocol for the nCounter XT Gene Expression Assay. Data was analyzed in the nSolver 2.5 Software. All genes were normalized to housekeeping genes (ITCH, RPL15, RPL19, TCEB1, UBE2D3). Analysis of changes in gene expression of markers for endocrine and progenitor cells was done using R.
# [5] = system: in vitro generated β cells; assay: Glucose stimulated insulin secretion (GSIS) of stage 6 cells; type: cell-based, human
# Method: Differentiated cells were washed twice in Krebs buffer (Krb) containing 2.8mM glucose, and then distributed into 24-well plates containing Millicell Cell culture inserts for easy transfer between conditions. Each well received 0.5 ml buffer with approximately 10^6 cells. After fasting in 2.8 mM glucose for 1 hour in 37° C., the analysis of the cells' response to changing glucose levels was performed by a series of 1 hour incubations in 37° C., in the following order: 1) 2.8 mM (low) glucose. 2) 20 mM (high) glucose. 3) brief wash in 2.8 mM glucose. 4) 1 hour incubation in 2.8 mM glucose. 5) 20 mM glucose. 6) 2.8 mM glucose with 30 mM KCL. At the end of each step (excluding the wash), the incubation buffer was collected and the amount of insulin secreted during the hour's incubation was determined using human insulin ELISA kit (ALPCO diagnostics; 80-INSHUU-E01.1). Clusters were then dispersed into single cells using TrypLE Express (Life Technologies), and cell number was counted automatically by a Vi-Cell (Beckman Coulter).
# [6] = system: differentiating hESC clusters; assay: Cell concentration in differentiation batches during stage 6; type: cell-based, human; conditions: treatment during stage 5, vs control
# Method: The relative changes in gene expression relative to control conditions are presented in log values, for two independent experiments. FIG. 9E provides cell concentration in the differentiation batches analyzed in FIG. 4H. […] Bars show the average±S.E. n, from left to right: 8 (7 for IWR), 6, 8, 7, 6. […] The bars show geometric mean±S.E. of the fold change in insulin secretion following the transition from low (2.8 mM) to high (20 mM) glucose levels. FIG. 9F provides fold change in insulin secretion after one stimulation with high glucose. From left to right: n=5,6,6,3; 2-way ANOVA on log(Fold insulin secretion): p-value=0.83 and 0.16 for differences caused by the treatment or the day of analysis, respectively. […]
# Differentiated cells were washed twice in Krebs buffer (Krb) containing 2.8mM glucose, and then distributed into 24-well plates containing Millicell Cell culture inserts for easy transfer between conditions. […] At the end of each step (excluding the wash), the incubation buffer was collected and the amount of insulin secreted during the hour's incubation was determined using human insulin ELISA kit (ALPCO diagnostics; 80-INSHUU-E01.1). Clusters were then dispersed into single cells using TrypLE Express (Life Technologies), and cell number was counted automatically by a Vi-Cell (Beckman Coulter).
# [7] = factor added during stage 4, flow cytometry at end of stage 4, vs control
# [8] = XXI removed from the media during stage 5, flow cytometry at end of stage 5, vs control with XXI
molecule,measurement,setting,value
Cc1c[nH]c(-c2cnc(NCCNc3ccc(C#N)cn3)nc2-c2ccc(Cl)cc2Cl)n1 [CHIR99021],number / proportion of CHGA+ endocrine cells,[1]; [7],decreased
C[C@@H](N)[C@H]1CC[C@H](C(=O)Nc2ccncc2)CC1 [Y-27632],appearance of buds on the clusters' surface,[2],induces
O=C(Nc1cccc2cccnc12)c1ccc(N2C(=O)[C@@H]3[C@H](C2=O)[C@@H]2C=C[C@H]3C2)cc1 [IWR1-endo],number / proportion of CHGA+ endocrine cells,[1]; [7],significantly raised
same,number / proportion of PDX1+/NKX6.1+ progenitors,[1]; [7],reduced
same,overall yield of in vitro generated β cells,"[1]; treatment during stage 5, concluded from β cell proportion and cell numbers",increases
same,"increase in proportion of C-PEP+/NKX6.1+ β cells, on average, relative to controls","[1]; treatment during stage 5, flow cytometry at end of stage 5",more than 50%
same,proportion of CHGA+ endocrine cells,"[1]; treatment during stage 5, flow cytometry at end of stage 5, compared with the stage 4 effect",even higher relative increase
same,proportion of hiPSC-1016 derived CHGA+ cells,[3],increases
same,expression of endocrine markers,[4],increased expression
same,expression of progenitor markers,[4],downregulated
same,insulin secretion in response to high glucose levels (first stimulation),"[5]; treatment during stage 5, 2.8 mM to 20 mM glucose",maintain their ability to secrete insulin
same,"insulin release on second stimulation with high glucose, compared to controls","[5]; treatment during stage 5, consecutive stimulations, 20 mM glucose",release less insulin in the second challenge
same,overall cell numbers / cell concentration during stage 6,[6],slightly increased
same,overall cell numbers / cell concentration during stage 6,[6]; listed as IWR,slightly higher
C[C@H](NC(=O)Cc1cc(F)cc(F)c1)C(=O)N[C@H]1N=C(c2ccccc2)c2ccccc2N(C)C1=O [XXI],number of CPEP+NKX6.1+ β cells,[1]; [8],dramatically reduced
same,number of GLP2+ α cells,[1]; [8],did not significantly affect
B1,appearance of buds on the clusters' surface,[2],induces
